{"source": "patent US10189820", "details": "amide bond; 22-membered ring; HATU/DIEA; NMP; 68.9 mM; 140.0 °C; 2 steps"}
{"substance": "8-ethyl-10,18,30-trimethyl-7,20-dioxo-7,8,11,12,13,14,15,20,21,28,29,30,31,32-tetradecahydro-benzo[4,5]imidazo[2,1-b]benzo[4,5]imidazo[1,2-i]dipyrazolo[5,1-m:4′,3′-t][1,3,6,9,11,14]hexaazacyclodocosine-3,24-dicarboxamide", "values": [{"measurement": "ring closure, yield after HPLC", "value": 4.56, "unit": "%"}]}
